Assay results: patent publication US4146719A, “Piperazinyl derivatives of quinoline carboxylic acids” (priority 1977, dated 1979)
Values after ≈ are worked out from the molar mass of the structure shown. “Also recorded” adds a separate entry of the source. Like-named read-outs stand apart in the source and are kept apart here.

What was measured:
[1] = test system: Escherichia coli NIHJ JC-2; assay: Preventive effect against ascending kidney infection in mice with Escherichia coli; assay type: in vivo, Escherichia coli; mice (ddY, female); details: for effect against ascending kidney infection (in words): mice
Procedure: Ascending kidney infection was induced in female mice (strain: ddY, 6 weeks old, body weight: 22-26g), by instilling Escherlichia coli NIHJ JC-2 suspended in 0.04 ml of Tryptosoya broth (Nissan) into the urinary tract of mice anesthetized with sodium pentobarbital and by holding for 6 hours the mice in plastic tubes (diameter 25 mm) and clamping the outlet of urinary tract.
Each of these test material was orally administered 3 hours after inoculation. Mice were sacrificed 48 hours after inoculation. Kidneys were removed aseptically and bisected, and the two halves were pressed and streaked on agar plate containing Desoxycholate medium (Nissan). The therapeutic effect of each compound was evaluated from the absence of growth on the agar surface after 20 hours of incubation at 37° C.

My. smegmatis IFO 3083 = assay: Antibacterial activity in vitro, M.I.C., agar dilution streak method; assay type: cell-based; details: Mycolicibacterium smegmatis, IFO3083; Gram +; read-out: M.I.C.
Pr. vulgaris XK Denken = assay: as above; assay type: cell-based, Proteus vulgaris; details: Proteus vulgaris; Gram -; read-out: M.I.C.
[2] = rat, in vivo
[3] = test system: Pseudomonas aeruginosa IID 1210; assay: Preventive effect against systemic infection with Pseudomonas aeruginosa in mice; assay type: in vivo, Pseudomonas aeruginosa; mice (ddY, male)
Procedure: Systemic infection was produced by inoculating male mice (strain: ddY, 6 weeks old, body weight: 28-33g) in intraperitoneally with Pseudomonas aeruginosa IID 1210 suspended in 0.5 ml of Brain heart infusion broth (Eiken) containing 5% mucin. […] Each of these test materials was administered to the mice twice, immediately after and then 6 hours after the inoculation, and the therapeutic effect of each compounds was judged from the survival rate.
(1) Miller L. C. and M. L. Tainter: Estimation of the ED50 and its error by means of logarithmic-probit graph paper Proc. Soc. Exp. Biol. Med. 57 261-264 (1944)
(2) Litchfield J. T. and F. Wilcoxon: A simplified method of evaluating dose - effect J. Pharmacol. 92 99-113 (1948)

[4] = Serum concentrations at 30 min. after a single oral administration in rats; details: rat
[5] = Serum concentrations after a single oral administration of 50 mg/kg in rats; assay type: in vivo; details: rat, 50 mg/kg oral
[6] = Concentrations in urine of rats after a single oral administration; assay type: in vivo; details: rat; for concentration at 3 h: 0-3 hours; for concentration at 3 h / concentration at 6 h / concentration at 24 h / concentration at 27 h: mean ±S.E., read-out: Urinary level; for concentration at 6 h: 3-6 hours; for concentration at 24 h: 6-24 hours; for concentration at 27 h: 24-27 hours
chromosome of myelocytes = test system: chromosome of myelocytes; parameters: species or system rats; details: rat, in vivo, po, 1000 mg/kg
[7] = Chelate formation with ferric ion; assay type: physicochemical; details: one third molar equivalent of ferric chloride hexahydrate, molar equivalent of sodium hydroxide, water
Excerpt: It is known that most of drugs such as Quinoform and Ethambutol which form chelates with metal ions in vivo produce undesirable side effects.

[8] = test system: Escherichia coli NIHJ JC-2; assay: Influence of kidney homogenate on antibacterial activity; assay type: cell-based
Procedure: (§1) Nutrient agar was heated and melted. […] The diameter of the inhibition zone was measured.

[9] = test system: Escherichia coli NIHJ JC-2; assay: Influence of rat bile on antibacterial activity; assay type: cell-based; details: bile of rats
Procedure: as §1

[10] = test system: Bacillus subtilis PCI 219; assay: Antibacterial activity in vitro, M.I.C., agar dilution streak method; assay type: cell-based; details: Bacillus subtilis, PCI219; Gram +; read-out: M.I.C.
[11] = test system: Klebsiella pneumoniae IFO 3512; assay: as above; assay type: cell-based; details: Klebsiella pneumoniae, IFO3512; Gram -; read-out: M.I.C.
[12] = rat, in vivo, po, 50 mg/kg
Procedure: Nutrient agar was heated and melted. Escherichia coli NIHJ JC-2 was added to melted agar, and well mixed, and 5 ml of the mixture was placed in Petri dish. Penicylinders were placed on the solidified agar, and the cylinder was filled with serum sample. The plate was placed in the incubator of 37° C. for 20 hours. The diameter of the inhibition zone was measured.
The tissue homogenates were prepared with 1:4 homogenates in M/15 phosphate buffer (pH 7.5).

[13] = test system: Salmonella enteritidis IID 604; assay: Antibacterial activity in vitro, M.I.C., agar dilution streak method; assay type: cell-based; details: Salmonella enterica; Gram -; read-out: M.I.C.
[14] = test system: Mycobacterium phlei IFO 3142; assay: as above; assay type: cell-based; details: Mycolicibacterium phlei, IFO3142; Gram +; read-out: M.I.C.
Ps. aeruginosa IFO 12689 = assay: as above; assay type: cell-based, Pseudomonas aeruginosa; details: Pseudomonas aeruginosa, IFO12689; Gram -; read-out: M.I.C.
[15] = test system: Diplococcus pneumoniae IID 552; assay: as above; assay type: cell-based; details: Streptococcus pneumoniae, IID552; Gram +; read-out: M.I.C.
Ps. aeruginosa IID 1210 = assay: as above; assay type: cell-based, Pseudomonas aeruginosa; details: Pseudomonas aeruginosa, IID1210; Gram -; read-out: M.I.C.
[16] = test system: Staphylococcus aureus 209P; assay: as above; assay type: cell-based; details: Staphylococcus aureus, 209P; Gram +; read-out: M.I.C.

Structure (SMILES): CCn1cc(C(=O)O)c(=O)c2cc(F)c(N3CCNCC3)cc21 [Compound (II), 1-ethyl-6-fluoro-1,4-dihydro-7-(1-piperazinyl)-4-oxoquinoline-3-carboxylicacid]
- ED50 ([1]; Escherichia coli, NIHJJC2, 48 h, oral, 3 hours after inoculation, challenge 3.2 × 10^7 cells/mouse, read-out: ED50 (95% confidence limit)): 15 mg/kg
- ED90 ([1]; Escherichia coli, NIHJJC2, 48 h, oral, 3 hours after inoculation, challenge 3.2 × 10^7 cells/mouse, read-out: ED90): 61 mg/kg
- effect against ascending kidney infection (in words) [1]: more potent than nalidixic acid and pipemidic acid
- effect against ascending kidney infection (in words) ([1]; listed as EXAMPLE 2): effective against ascending kidney infection with Escherichia coli in mice
- MIC (My. smegmatis IFO 3083): 1.56 µg/mL (≈ 4.89 µM)
- MIC (Pr. vulgaris XK Denken): 0.2 µg/mL (≈ 0.626 µM)
- dose dependence of serum concentration (in words) [2]: depended on the dose from 25 mg/kg to 400 mg/kg
- ED90 ([3]; Pseudomonas aeruginosa, IID1210): 185 mg/kg
- ED50 ([3]; Pseudomonas aeruginosa, IID1210, po, 6 h, read-out: ED50 (95% confidence limit)): 98 mg/kg
- protection against systemic infection (in words) ([3]; mice, listed as EXAMPLE 2): effectively protected the mice from Pseudomonas aeruginosa infection; also recorded: more potent than pipemidic acid and carbenicillin
- concentration at 0.5 h ([4]; 25 mg/kg): 310 ± 40 ng/mL
- concentration at 0.5 h ([4]; 50 mg/kg): 870 ± 110 ng/mL
- concentration at 0.5 h ([4]; 100 mg/kg): 1420 ± 230 ng/mL
- concentration at 0.5 h ([4]; 200 mg/kg): 2230 ± 300 ng/mL
- concentration at 0.5 h ([4]; 400 mg/kg): 3370 ± 350 ng/mL
- absorption (in words) [5]: rapid
- concentration at 0.5 h ([5]; serum, 0.5 hours): 870 ± 110 ng/mL
- concentration at 1 h ([5]; serum, 1 hour): 770 ± 130 ng/mL
- concentration at 2 h ([5]; serum, 2 hours): 520 ± 100 ng/mL
- concentration at 4 h ([5]; serum, 4 hours): 230 ± 20 ng/mL
- concentration at 6 h ([5]; serum, 6 hours): 110 ± 10 ng/mL
- Tmax ([5]; serum, read-out: time of concentration peak in serum (converted)): 30 min
- concentration at 3 h ([6]; 1.56 mg/kg oral): 1360 ± 140 ng/mL
- concentration at 6 h ([6]; 1.56 mg/kg oral): 930 ± 140 ng/mL
- concentration at 24 h ([6]; 1.56 mg/kg oral): 170 ± 50 ng/mL
- concentration at 27 h ([6]; 1.56 mg/kg oral): 40 ± 10 ng/mL
- concentration at 3 h ([6]; 3.13 mg/kg oral): 3390 ± 550 ng/mL
- concentration at 6 h ([6]; 3.13 mg/kg oral): 3780 ± 440 ng/mL
- concentration at 24 h ([6]; 3.13 mg/kg oral): 580 ± 90 ng/mL
- concentration at 27 h ([6]; 3.13 mg/kg oral): 30 ng/mL
- concentration at 3 h ([6]; 6.25 mg/kg oral): 9690 ± 2300 ng/mL
- concentration at 6 h ([6]; 6.25 mg/kg oral): 8080 ± 1500 ng/mL
- concentration at 24 h ([6]; 6.25 mg/kg oral): 1360 ± 200 ng/mL
- concentration at 27 h ([6]; 6.25 mg/kg oral): 40 ng/mL
- concentration at 3 h ([6]; 12.5 mg/kg oral): 21900 ± 3600 ng/mL
- concentration at 6 h ([6]; 12.5 mg/kg oral): 16800 ± 1600 ng/mL
- concentration at 24 h ([6]; 12.5 mg/kg oral): 4000 ± 500 ng/mL
- concentration at 27 h ([6]; 12.5 mg/kg oral): 60 ± 20 ng/mL
- concentration at 3 h ([6]; 25.0 mg/kg oral): 56800 ± 11100 ng/mL
- concentration at 6 h ([6]; 25.0 mg/kg oral): 46400 ± 3800 ng/mL
- concentration at 24 h ([6]; 25.0 mg/kg oral): 13500 ± 3000 ng/mL
- concentration at 27 h ([6]; 25.0 mg/kg oral): 1200 ± 500 ng/mL
- concentration at 3 h ([6]; 50.0 mg/kg oral): 89300 ± 19500 ng/mL
- concentration at 6 h ([6]; 50.0 mg/kg oral): 99200 ± 15900 ng/mL
- concentration at 24 h ([6]; 50.0 mg/kg oral): 32200 ± 100 ng/mL
- concentration at 27 h ([6]; 50.0 mg/kg oral): 3100 ± 900 ng/mL
- Tmax ([6]; oral, read-out: time of concentrations peak in urine): 0 to 360 min
- effects on chromosome of myelocytes (in words) (chromosome of myelocytes): no effects of the test compound on chromosome of myelocytes were observed
- chelate compound with ferric ion [7]: did not give any chelate compound when treated with ferric ion
- antibacterial activity in presence of kidney homogenate (in words) [8]: decreased by liver and kidney homogenate
- antibacterial activity in presence of bile (in words) [9]: not influenced by bile of rats
- MIC [10]: 0.39 µg/mL (≈ 1.22 µM)
- MIC [11]: 0.05 µg/mL (≈ 0.157 µM)
- Tissue level, kidney (free concentration) ([12]; 30 min): 7.4 ± 1.4 µg/g
- Tissue level, kidney (free concentration) ([12]; 60 min): 6.8 ± 1.2 µg/g
- Tissue level, kidney (free concentration) ([12]; 120 min): 4.4 ± 0.6 µg/g
- Tissue level, kidney (free concentration) ([12]; 240 min): 1.9 ± 0.2 µg/g
- Tissue level, kidney (free concentration) ([12]; 360 min): 1.0 ± 0.1 µg/g
- MIC [13]: 0.2 µg/mL (≈ 0.626 µM)
- MIC [14]: 0.39 µg/mL (≈ 1.22 µM)
- MIC (Ps. aeruginosa IFO 12689): 1.56 µg/mL (≈ 4.89 µM)
- MIC [15]: 12.5 µg/mL (≈ 39.1 µM)
- MIC (Ps. aeruginosa IID 1210): 1.56 µg/mL (≈ 4.89 µM)
- MIC [16]: 0.78 µg/mL (≈ 2.44 µM)
